The source of these data is patent EP2727944A1, “Depletion of CCR2-positive monocytes for the treatment of inflammatory conditions in the gastrointestinal system” (Universitätsklinikum Regensburg, priority 2012, dated 2014).

The test concerns CX3CR1/GFP^intLy6C^hi effector monocytes. The test is described as follows: IL-6 ELISA of sorted colonic cells cultured with TLR/NOD2 ligands. It counts as cell-based, mice. The following applies: cells sorted at DSS day 7, cultured 16 hr; Pam3CSK4 10 µg/ml, LPS 100 ng/ml. An excerpt:
To probe whether the pro-inflammatory signature of the effector monocytes could have been a result of TLR and NOD-2 engagement, the cells were isolated from colitic mice and exposed to the respective ligands.
On the technique in general: In an ELISA, binding on a coated surface is turned into a signal by an enzyme label.

In the case of Pam3CSK4, the IL-6 secretion result is reported as “substantial IL-6 secretion”.
